Measurements reported in ChEMBL document CHEMBL1121531, “Steroidal alpha-methylene delta-lactones as potential antitumor agents” (J Med Chem, 1980).
Converted amounts (≈) assume the structure as drawn.

Tests used:
Assay type in all cases: cell-based
[1] = (§1) Dose that required to inhibit cell growth for cytotoxicity against HEp-2 cells in culture; conditions: human, HEp-2 cells; read-out: LD50 (the source's name)
[2] = Dose that required to inhibit cell growth for cytotoxicity against human nasopharyngeal carcinoma (KB) cells in culture; conditions: read-out: LD50 (the source's name)
[3] = test system: HEp-2; assay: as §1; conditions: human, hep-2

**Q.** Which CC50 [1] does the source give for `CC(=O)[C@H]1CC[C@H]2[C@@H]3CC[C@H]4CC(=O)CC[C@]4(C)[C@H]3CC[C@]12C` here?
**A.** 0.84 µg/mL (≈ 2.65 µM)

**Q.** For `C=C1CC2(C)C3CCC4(C)C(OC(C)=O)CCC4C3CC[C@H]2OC1=O` (some centres undefined), which GI50 [2] is on record?
**A.** 0.72 µg/mL (≈ 2.08 µM)

**Q.** For `C=C1CC2(CCC3(C)[C@@H](CC[C@H]4[C@@H]5CCC(=O)C5(C)CC[C@@H]43)C2)OC1=O` (some centres undefined), which CC50 [1] is on record?
**A.** 0.58 µg/mL (≈ 1.63 µM)

**Q.** With `C[C@]12CC[C@H]3[C@@H](CCC4=CC(=O)CC[C@@]43C)[C@@H]1CC[C@@H]2O` [TESTOSTERONE] as the compound, how does the LD50 [3] read?
**A.** 0.58 µg/mL

**Q.** And the CC50 [1]?
**A.** 0.44 µg/mL (≈ 1.53 µM)

**Q.** What about the GI50 [2] of the same compound?
**A.** 1.27 µg/mL (≈ 4.4 µM)

**Q.** With `C=C1CC2(C)C3CCC4(C)C(O)CCC4C3CC[C@H]2OC1=O` (some centres undefined) as the compound, how does the GI50 [2] read?
**A.** 0.76 µg/mL (≈ 2.5 µM)

**Q.** With `C=C1CC2C3CC[C@H]4CC(O)CCC4(C)C3CCC2(C)OC1=O` (some centres undefined) as the compound, how does the GI50 [2] read?
**A.** 1 µg/mL (≈ 3.14 µM)

**Q.** Which GI50 [2] does the source give for `C=C1CC2(C)C3CCC4(C)C(CCCCCCCC)CCC4C3CC[C@H]2OC1=O` (some centres undefined) here?
**A.** 0.82 µg/mL (≈ 2.05 µM)
